Data from article PMC2667896 (Archives of Drug Information, 2009).
Where two headings read alike, the source gives them in different places.

Assays:
[1] = system: CYP3A4; conditions: cited from earlier work
[2] = Steady-state plasma pharmacokinetics in healthy volunteers; type: in vivo, human
[3] = cited from earlier work
[4] = Day 11, Arm 1, participant 2, saquinavir/ritonavir 1,000/100 mg orally twice daily
[5] = Day 11, Arm 1, participant 4, saquinavir/ritonavir 1,000/100 mg orally twice daily
[6] = Day 12, Arm 1, participant 2, saquinavir/ritonavir 1,000/100 mg orally twice daily
[7] = Day 12, Arm 1, participant 4, saquinavir/ritonavir 1,000/100 mg orally twice daily
[8] = Day 13, Arm 1, participant 2, saquinavir/ritonavir 1,000/100 mg orally twice daily
[9] = Day 13, Arm 1, participant 4, saquinavir/ritonavir 1,000/100 mg orally twice daily

| Structure (SMILES) | Effect on CYP3A4 ([1]; efavirenz) | Individual trough plasma concentration ([2]; Day 11, Arm 2, participant 1, efavirenz 600 mg orally once daily) | Individual trough plasma concentration ([2]; Day 12, Arm 2, participant 1, efavirenz 600 mg orally once daily) | Individual trough plasma concentration ([2]; Day 13, Arm 2, participant 1, efavirenz 600 mg orally once daily) | AUC ([2]; human, plasma, po, 600 mg) | Cmax ([2]; human, plasma, po, 600 mg) | Tmax ([2]; human, plasma, po, 600 mg) | half-life ([2]; human, plasma, po, 600 mg) | half-life [3] | Individual trough plasma concentration [2, 4] | Individual trough plasma concentration [2, 5] | Individual trough plasma concentration [2, 6] | Individual trough plasma concentration [2, 7] | Individual trough plasma concentration [2, 8] | Individual trough plasma concentration [2, 9] | half-life ([2]; human, plasma, po) | Tmax ([2]; steady state (day 14), Arm 1, participant 2, saquinavir/ritonavir 1,000/100 mg orally twice daily) | Effect on CYP3A4 ([1]; saquinavir) | Tmax ([2]; human, plasma, po) |
| --- | --- | --- | --- | --- | --- | --- | --- | --- | --- | --- | --- | --- | --- | --- | --- | --- | --- | --- | --- |
| O=C1Nc2ccc(Cl)cc2[C@@](C#CC2CC2)(C(F)(F)F)O1 [Efavirenz] | potent inducer | 1,080 ng/mL | 1,050 ng/mL | 1,060 ng/mL | 42500 ng·h/mL | 4780 ng/mL | 2 h | 26.5 h | 40 to 55 h | – | – | – | – | – | – | – | – | – | – |
| CC(C)c1nc(CN(C)C(=O)N[C@H](C(=O)N[C@@H](Cc2ccccc2)C[C@H](O)[C@H](Cc2ccccc2)NC(=O)OCc2cncs2)C(C)C)cs1 [Ritonavir] | – | – | – | – | – | – | – | – | – | 57.8 ng/mL | 137 ng/mL | 83.8 ng/mL | 163 ng/mL | 86.2 ng/mL | 251 ng/mL | 3.53 h | 1.00 h | – | – |
| CC(C)(C)NC(=O)[C@@H]1C[C@@H]2CCCC[C@@H]2CN1C[C@@H](O)[C@H](Cc1ccccc1)NC(=O)[C@H](CC(N)=O)NC(=O)c1ccc2ccccc2n1 [Saquinavir] | – | – | – | – | – | – | – | – | – | 337 ng/mL | 602 ng/mL | 640 ng/mL | 700 ng/mL | 867 ng/mL | 1,220 ng/mL | 5.98 h | – | weak CYP3A4 inhibitor | 2 h |
